Measured values from a melting point compilation (Tetko et al.).

| Compound | melting point [°C] |
| --- | --- |
| CC(=O)c1c(O)c(C)c(O)c(Cc2c(O)c3c(c(C(=O)C=Cc4ccccc4)c2O)OC(C)(C)C=C3)c1O | 212 |
| CCCCCCCCCCCCCCCC(CCCC)c1ccccc1 (configuration not stated) | 30.2 |
| Clc1ncnc2scc(-c3cccs3)c12 | 110 to 112 |
| Oc1ccc(C(F)(F)F)cc1 | 46 |
| CCC(=O)c1cccc(Br)c1 | 40 |
| Cc1nccn1-c1ccccc1CN | 48 to 48.5 |
| CS(=O)(=O)Nc1ccccc1 | 93 to 97 |
| CC(=O)N[C@H]1[C@H](OC(C)=O)O[C@H](COC(C)=O)[C@@H](OC(C)=O)[C@@H]1OC(C)=O | 186 to 189 |
| COc1ccc(C2Nn3c(nnc3-c3ccc([N+](=O)[O-])cc3)S2)cc1 (configuration not stated) | 153 |
| Nc1nc(N)sc(=S)n1 | 360 |
| Brc1ccc(Oc2ccccc2Br)c(Br)c1 | < 20 |
| CC(C)(C)C(=O)C(C)(C)C | -25.2 |
| O=C(O)Cc1ccc2ccccc2c1 | 142 |
| CSc1nc2[nH]c(=S)n(-c3ccccc3C(=O)O)c(=O)c2n1C | 284 |
| CN(C)c1ccc(N=c2cc(-c3ccccc3)cc(-c3ccccc3)s2)cc1 | 148 |
| COc1ccc(C2(C(=O)O)CCCCC2)cc1 | 172 to 177 |
| CC1CCC(C)(C(=O)CN2C(=O)c3ccccc3C2=O)C1(C)C (configuration not stated) | 99 |
| CN1CCN(C2=C(Cl)C(=O)c3ccccc3C2=O)CC1 | 120 |
| O=C(O)c1cc(I)ccc1Br | 175 |
| O=C(NC(=O)c1c(F)cccc1F)Nc1ccc(CON=C(c2ccc(Cl)cc2)C2CC2)cc1 | 144 |
| FC(F)(F)c1cc(C(F)(F)F)c(C(F)(F)F)cc1C(F)(F)F | 73 to 74 |
| Fc1ccc(C(c2ccc(F)cc2)C(Cl)(Cl)Cl)cc1 | 44.5 |

| Compound | melting point [°C] |
| --- | --- |
| Nc1ncccc1O | 170 to 176 |
| O=[N+]([O-])c1cnccc1O | 271 to 273 |
| c1ccc(OCc2nnc3sc(-c4cccc5ccccc45)nn23)cc1 | 134 |
| CN1CCN(CCCN2c3ccccc3Sc3ccc(C(F)(F)F)cc32)CC1 | 25 |
| Sc1nnc(-c2ccco2)n1-c1ccc(OCc2ccccc2)cc1 | 236 to 238 |
| N#Cc1cn(-c2ccccc2Cl)c(=O)[nH]c1=O | 255 to 258 |
| Cc1cc(N)cc(C)n1 | 192 |
| CC(C)CC1CCCCC1 | -95 |
| O=C(O)c1cc(F)c(Cl)cc1Cl | 141 to 144 |
| OCc1cnc(S)n1Cc1ccccc1 | 238 to 240 |
| CCOC(=O)CC(CC(=O)OCC)(c1cc(C)c(O)c(C)c1)c1cc(C)c(O)c(C)c1 | 178 |
| O=C1CN(N=Cc2ccc([N+](=O)[O-])o2)C(=O)N1CN1CCOCC1 | 206 |
| O=C1N[C@H]2[C@H](CS[C@H]2CCCCC(=O)ON2C(=O)CCC2=O)N1 | 212 |
| CCOC(=O)c1nn(-c2ccc(C)cc2)c(C)c1C(=O)c1noc(-c2cccc3ccccc23)c1S(=O)(=O)c1ccccc1 | 173 |
| CC(=O)N(C)C(C)=O | -25 |
| Oc1c(Cl)cc(Cl)c2ccccc12 | 108 |
| Cc1nc(C=O)c[nH]1 | 165 |
| NCc1cc(-c2ccco2)on1 | 46 to 49 |
| Nc1ccc2c(c1)C(=O)OC21c2ccc(O)cc2Oc2cc(O)ccc21 | 223 |
| O=c1[nH]n(C2C=CC3C4C=CC(C4)C32)c(=O)n1-c1ccccc1 (configuration not stated) | 155 |
| C=CCCCCCCCCCCCCCCCCC | 23 |
| O=C1Cc2c1cccc2[N+](=O)[O-] | 115 to 117 |

| Compound | melting point [°C] |
| --- | --- |
| COc1ccc(CC(=O)O)cc1OCc1ccccc1 | 126 |
| O=C(Cl)c1cc(I)ccc1F | 29 |
| CC(=O)Nc1cccc(N)c1 | 84 to 88 |
| O=c1cc(NC2CCCCC2)c2ccccc2o1 | 194 |
| N#Cc1ccccc1Oc1ccc(Cl)cc1Cl | 84 to 86 |
| Cc1ccccc1CCC(=O)O | 104 to 106 |
| c1ccc(C2c3ccccc3-c3ccccc32)cc1 | 147 |
| CC12C=C(C(=O)Oc3ccccc3)C(CC1)C2(C)C (configuration not stated) | 64 |
| Cc1ccccc1C(=O)Nc1cccc(OC(C)C)c1 | 92.5 |
| CC(C)(C)OC(=O)NCC1CCN(Cc2ccccc2)CC1 | 102 to 103 |
| O=C(Nc1ccc(I)cc1)C(C(F)(F)F)C(F)(F)F | 235 to 237 |
| CN(c1ccccc1)c1ccccc1 | -7.6 |
| COc1ccc2c3c1OC1C(O)CC=C4C(C2)N(C)CCC431 (configuration not stated) | 128 |
| Cc1ccc(C(=O)O)cc1I | 208 |
| Cn1c2cc(N3CCCC3)cc(-c3ccccc3)c2c(=O)n1-c1ccccc1 | 159 |
| O=C(CC(=O)C(F)(F)F)c1ccco1 | 20.5 |
| Cc1cc(Cl)c(C)cc1N | 94 to 96 |
| O=C(Cl)c1cccnc1Sc1ccccc1 | 71 to 74 |
| O=[N+]([O-])c1ccccc1N1CSc2nnc(-c3cccnc3)n2C1 | 159 |
| O=C1CC[C@@H](CO)N1 | 78 to 86 |
| O=[N+]([O-])c1ccc(N=C=Nc2ccc([N+](=O)[O-])cc2)cc1 | 166 to 168 |
| CN1c2ccccc2C(C)(C)C12C=Cc1cc([N+](=O)[O-])ccc1O2 (configuration not stated) | 180 |

| Compound | melting point [°C] |
| --- | --- |
| N[C@H](CCCCP(=O)(O)O)C(=O)O | 215 to 220 |
| CC(C)(C)OC(=O)NCCCC[C@H](NC(=O)OCC1c2ccccc2-c2ccccc21)C(=O)O | 134 to 137 |
| Cc1oc(C(C)(C)C)cc1C(=O)O | 92 |
| O=C(O)c1cccc(-c2cc[nH]n2)c1 | 204 |
| Cc1ccc(Nc2ccc([N+](=O)[O-])cc2N)cc1 | 160 |
| COc1cc2c(cc1OC)C(CC#N)NCC2 (configuration not stated) | 110 to 114 |
| CC(CS)C(=O)N1CCCC1C(=O)O (configuration not stated) | 106 |
| ClCc1csc2ccc(Br)cc12 | 106 to 108 |
| Nc1cccc2c1C(=O)c1cccc(Cl)c1C2=O | 207 |
| Fc1c(F)c(F)c(P(c2ccccc2)c2ccccc2)c(F)c1F | 71 |
| CCOC(=O)NP(=O)(N1CC1)N1CC1 | 89 |
| CCOC(=O)c1cc2c(oc1=O)-c1ccc(OC)cc1CC2 | 141 to 142 |
| FC(F)(F)C(Cl)C(F)(F)F | -120 |
| Cc1cccc(C)c1NC(=O)C(C)Br (configuration not stated) | 163 to 165 |
| CCN(CC)c1ccc(/C=C2\CC/C(=C\c3ccc(N(CC)CC)cc3)C2=O)cc1 | 186 to 189 |
| O=C(O)C(=O)Nc1ccccc1 | 150 |
| O=C1CN=C(c2ccccc2)c2cc([N+](=O)[O-])ccc2N1 | 225 |
| O=C(O)CCC(F)(F)F | 31 |
| O=C(O)C1CSC(c2cccnc2)=N1 (configuration not stated) | 180 to 181 |
| O=C1/C(=N/Nc2ccc(F)cc2)C(C(F)(F)F)=NN1c1ccccc1 | 185 |
| Nc1ccc(Cl)cc1O | 152 to 157 |
